Source: patent US20240217917A1, “PHOTOLYTICALLY DEGRADABLE COMPOUNDS AND METHODS” (The University of Stavanger, priority 2021, published 2024)
Values after ≈ are worked out from the molar mass of the structure shown.

Legend:
[1] = Photolysis of compounds 1-5, 125 W medium pressure mercury vapour lamp, conversion by 1H-NMR; assay type: physicochemical; conditions: for stability under irradiation at lower pH: pH values lower than 11
Protocol: Following the procedure by Wan and Muralidharan (Wan, P.; Muralidharan, S. J. Am. Chem. Soc. 1988, 110 (13), 4336-4345) aminol 1 (compound 1) was photolysed in acetonitrile and water (7:3, v:v) at the appropriate pH using a 125 W medium pressure mercury vapour lamp. Seven experiments were performed from pH 13 to pH 1 with a concentration of around 0.68 mM, and each reaction was irradiated for. 2 hours Following liquid-liquid extraction with DCM, all reaction mixtures were analysed with ^1H-NMR spectroscopy. Initially it was expected that a mechanism similar to the nitrophenethyl alcohols (Scheme 3) would occur and the expected products would therefore be N-methyl-p-nitroaniline, phenylacetaldehyde, 2-(p-nitroaniline)acetaldehyde, and toluene
Because of this, it seems likely that following excitation to the singlet state and intersystem crossing (ISC) to the triplet state, a proton is abstracted and initiates decomposition. Two products were identified from the NMR data; p-nitroaniline and benzaldehyde. This means that there are two carbon atoms in the starting material unaccounted for (Scheme 13). A reasonable hypothesis is that they remain in the aqueous phase during extraction as formaldehyde or glyoxal.

UV-vis spectra = assay type: physicochemical; conditions: ethanol as solvent
Protocol: As illustrated in the UV-vis spectra, where the nitro group is positioned greatly influences the λmax. With nitro substitution on the aniline these values are around 380 and 400 nm, whereas for the two other compounds a hypsochromic shift is observed all the way down to 248 nm.
UV-vis spectra were obtained on an Agilent 8453 single-beam UV-vis spectrophotometer with a deuterium-discharge lamp for the UV range and a tungsten lamp for the visible wavelength range. Samples were analysed in an Agilent open-top UV quartz cell (10 mm, 3.0 mL) with ethanol as solvent. Wavelengths are reported in nm and molar attenuation coefficients in M^−1cm^−1.

S. Aureus = experiment: Minimum inhibitory concentration (MIC) screen, OD 600 nm; assay type: cell-based; parameters: key to Minimum inhibitory concentration, S. Aureus: I = inactive, i.e. below the activity threshold; conditions: screened at 100-1.6 μM; for MIC: Staphylococcus aureus
Protocol: (§1) With compounds 6-9 and the crude degradation mixtures in hand, the minimum inhibitory concentration (MIC) was screened against a number of gram-positive and gram-negative bacteria, including E. faecalis, E. coli, P. aeruginosa, S. aureus, S. agalactiae, and S. epidermidis. To determine the activity, optical density (OD) at 600 nm was measured to estimate the concentration of bacteria at concentrations from 1.6 -100 μM. Values below 0.05 are counted as active and indicates inhibition of growth, illustrated by plotting OD against the concentration for compounds 6-9, (FIG. 9). […] Black stapled lines at 0.05 for MIC and 30% for biofilm formation indicate activity threshold values. […] No activity was observed against the gram-negative bacteria (Table 3).

S. Agalactiae = experiment: as above; assay type: cell-based; parameters: key to Minimum inhibitory concentration, S. Agalactiae: I = inactive, i.e. below the activity threshold; conditions: screened at 100-1.6 μM; for MIC: Streptococcus agalactiae
Protocol: as §1

S. Epidermidis [2] = experiment: Biofilm inhibition; assay type: cell-based; conditions: threshold 30% biofilm formation
Protocol: as §1

[3] = Photolysis of compounds 6-9, 6 W low-pressure mercury vapor lamp, conversion by 1H-NMR; assay type: physicochemical; conditions: pH 13; acetonitrile/NaOH solution 30/70; 254 nm low-pressure lamp; 24 hours
Protocol: Aminol 6-9 (compounds 6-9) were dissolved in acetonitrile and diluted with a sodium hydroxide solution at pH 13 (30/70, V/V). Since all the compounds have strong absorption bands around 250 nm (FIG. 8), a 6 W low-pressure mercury vapor lamp was chosen as the irradiation source, since it emits mainly at 254 nm. All reactions were carried out in a 75 mL gas inlet flask (˜0.7 mM) under a constant stream of nitrogen with a quartz well cold finger for 24 hours.
Following aqueous workup, the reaction mixtures were analysed with ^1H-NMR spectroscopy. […] The photodegradation reaction for compound 6 can be seen in Scheme 21. Additionally, the two doublets at 7.47 and 8.13 ppm (Hc and Ha) have disappeared into a complicated multiplet, and the aliphatic protons around 3 ppm are no longer visible (FIG. 6).

S. Epidermidis [4] = experiment: Minimum inhibitory concentration (MIC) screen, OD 600 nm; assay type: cell-based; parameters: key to Minimum inhibitory concentration, S. Epidermidis: I = inactive, i.e. below the activity threshold; conditions: screened at 100-1.6 μM
Protocol: as §1

[5] = Solubility observed as precipitation in the MIC test; assay type: physicochemical; conditions: higher concentrations in the S. agalactiae MIC test
Protocol: as §1

[6] = Photolysis of compounds 1-5, 125 W medium pressure mercury vapour lamp, conversion by 1H-NMR; assay type: physicochemical; conditions: same conditions
[7] = pH 11, 2 hours irradiation, acetonitrile and water (7:3), medium pressure mercury lamp
[8] = pH 13, 2 hours irradiation, acetonitrile and water (7:3), medium pressure mercury lamp

| Compound | conversion after photolysis [1, 7] | conversion after photolysis [1, 8] | E (UV-vis spectra) | λmax (UV-vis spectra) | MIC (S. Agalactiae) | Minimum inhibitory concentration, S. Epidermidis (S. Epidermidis [4]) | further results |
| --- | --- | --- | --- | --- | --- | --- | --- |
| O=C(NCC(O)CNc1ccc([N+](=O)[O-])cc1)C(Cl)Cl (centres unmarked) [Compound 5] | 68% | 100% | 17263.9 M⁻¹ cm⁻¹ | 382 nm |  |  | conversion after photolysis ([1]; pH 11, 2 hours irradiation, acetonitrile and water (7:3), medium pressure mercury lamp, listed as compound resembling chloramphenicol): 60%; conversion after photolysis ([1]; pH 13): Full conversion; stability under irradiation at lower pH [1]: remained stable |
| O=[N+]([O-])c1ccc(CC(O)CNc2cc(Cl)c(OC(F)(F)C(F)C(F)(F)F)cc2Cl)cc1 (centres unmarked) [Compound 6] |  |  |  |  | 6.3 µM (≈ 3.2 µg/mL) | I | Minimum inhibitory concentration, S. Aureus (S. Aureus): I; biofilm inhibition for S. epidermidis (S. Epidermidis [2]): 12.5 µM; photodegradation [3]: complete conversion; solubility [5]: limited solubility |
| O=[N+]([O-])c1ccc(F)c(CC(O)CNc2cc(Cl)c(F)c(Cl)c2F)c1F (centres unmarked) [Compound 7, 1-((3,5-Dichloro-2,4-difluorophenyl)amino)-3-(2,6-difluoro-3-nitrophenyl)propan-2-ol] |  |  |  |  |  | I | MIC (S. Aureus): 50 µM (≈ 20.7 µg/mL); Minimum inhibitory concentration, S. Agalactiae (S. Agalactiae): I |
| O=[N+]([O-])c1ccc(F)c(CC(O)CNc2cc(Cl)c(OC(F)(F)C(F)C(F)(F)F)cc2Cl)c1F (centres unmarked) [Compound 8, 1-((2,5-Dichloro-4-(1,1,2,3,3,3-hexafluoropropoxy)phenyl)amino)-3-(2,6-difluoro-3-nitrophenyl)propan-2-ol] |  |  |  |  | 6.3 µM (≈ 3.42 µg/mL) | I | Minimum inhibitory concentration, S. Aureus (S. Aureus): I; biofilm inhibition for S. epidermidis (S. Epidermidis [2]): 25 µM; conversion after photolysis [3]: 56%; photodegradation [3]: complete degradation was not achieved; solubility [5]: limited solubility |
| O=[N+]([O-])c1ccc(CC(O)CNc2ccccc2)cc1 (centres unmarked) [Compound 3] |  | 40% | 15066.6 M⁻¹ cm⁻¹ | 248 nm |  |  |  |
| O=[N+]([O-])c1ccc(F)c(CC(O)CNc2cc(Cl)cc(Cl)c2F)c1F (centres unmarked) [Compound 9, 1-((3,5-Dichloro-2-fluorophenyl)amino)-3-(2,6-difluoro-3-nitrophenyl)propan-2-ol] |  |  |  |  | 50 µM (≈ 19.8 µg/mL) |  | MIC (S. Aureus): 50 µM (≈ 19.8 µg/mL); MIC (S. Epidermidis [4]; Staphylococcus epidermidis): 50 µM (≈ 19.8 µg/mL) |

More lines, main results first:

| conversion after photolysis [1, 7] | conversion after photolysis [1, 8] | E (UV-vis spectra) | λmax (UV-vis spectra) | Compound | MIC (S. Agalactiae) | Minimum inhibitory concentration, S. Epidermidis (S. Epidermidis [4]) | further results |
| --- | --- | --- | --- | --- | --- | --- | --- |
| 17% | 17% | 1331.3 M⁻¹ cm⁻¹ | 400 nm | O=[N+]([O-])c1cccc(NCC(O)Cc2ccccc2)c1 (centres unmarked) [Compound 2] |  |  | stability under irradiation at lower pH [1]: remained stable |
| 100% | 100% | 1740.0 M⁻¹ cm⁻¹ | 384 nm | O=[N+]([O-])c1ccc(NCC(O)Cc2ccccc2)cc1 (centres unmarked) [Compound 1] |  |  | conversion after photolysis ([1]; pH 5, 2 hours irradiation): stops completely; time to full decomposition ([1]; pH 7, extrapolated from conversion after 2 hours): ca. 6 hours; conversion in reference experiments in the dark [6]: no conversion |
|  | 56% | 17018.7 M⁻¹ cm⁻¹ | 248 nm | O=[N+]([O-])c1cccc(CC(O)CNc2ccccc2)c1 (centres unmarked) [Compound 4] |  |  |  |
